# In patent publication US12329745B2, “Methods and compositions for treating glucocorticoid excess” (Sparrow Pharmaceuticals, Inc., priority 2022, dated 2025):
# Tests used:
# [1] = target: T1, adipose HSD-1 (Homo sapiens, UniProt P28845); assay: Adipose HSD-1 inhibition by microdialysis (D8 cortisone to D8 cortisol) in subjects with type 2 diabetes given SPI-62; type: in vivo
# T1 construct: infused continuously into subcutaneous abdominal adipose tissue via microdialysis catheters; from tissue; host or cells: human subcutaneous abdominal adipose tissue, in vivo
# Procedure: Male and non-menstruating female subjects with type 2 diabetes aged between 18 and 65 years with a body mass index between 30.0 and 45.0 were administered SPI-62 daily for 14 days. […] Percent adipose HSD-1 inhibition was calculated as: 100*(1-(MPFt/MPFbaseline).
# The time (t) of the sample was considered to be the midpoint of the collection interval. […] Data shown are the median inhibition observed in two subjects for whom the SPI-62 daily dose was 6 mg.
# Male and non-menstruating female subjects with type 2 diabetes aged between 18 and 65 years with a body mass index between 30.0 and 45.0 were administered SPI-62 daily for 14 days. In addition to the six subjects described in Example 1 who received SPI-62 1, 3, or 6 mg for 14 days, six additional subjects received SPI-62 1, 2, 3, or 10 mg for 5 to 8 days. […] Percent adipose HSD-1 inhibition was calculated as: 100*(1-(MPFt/MPFbaseline). The time (t) of the sample was considered to be the midpoint of the collection interval. A higher sensitivity assay for D8 cortisol was used to enable quantitation of adipose HSD-1 inhibition of >95%.
# [2] = target: T2, human HSD-1 expressed in CHO cells (Homo sapiens, UniProt P28845); assay: Inhibition of human HSD-1 expressed in CHO cells; type: cell-based
# T2 construct: expressed in transfected cells; host or cells: CHO cells
# [3] = Clinical effective daily dose and side effects of HSD-1 inhibitors; settings: human, in vivo
# Procedure: Pseudo-irreversible HSD-1 inhibitors might have additional advantages over other HSD-1 inhibitors. For example, with durable pharmacologic effect, pseudo-irreversible HSD-1 inhibitors are more amenable to less than daily dosing including depot formulations and less likely to show decreased efficacy based on imperfect patient compliance. Additionally, HSD-1 in the human body appears to become completely occupied with approximately 3 mg of a potent small molecule inhibitor. Because pseudo-irreversible inhibitors, once bound, distribute only slowly off HSD-1 a low chronic dose is possible. Several pseudo-irreversible HSD-1 inhibitors, such as SPI-62, ABT-384, MK-0736, and MK-0916, have effective dose ranges below 10 mg daily.
# T1 sequence (P28845 whole entry, the tested form may be a part): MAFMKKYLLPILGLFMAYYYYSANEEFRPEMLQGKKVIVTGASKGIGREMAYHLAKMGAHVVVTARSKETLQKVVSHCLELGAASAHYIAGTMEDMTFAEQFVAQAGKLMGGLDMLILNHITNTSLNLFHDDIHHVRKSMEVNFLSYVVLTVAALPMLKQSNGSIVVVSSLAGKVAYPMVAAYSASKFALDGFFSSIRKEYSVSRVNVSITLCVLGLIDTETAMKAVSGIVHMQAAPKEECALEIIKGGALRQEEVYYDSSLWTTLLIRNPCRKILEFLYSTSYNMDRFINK
# T2 sequence (P28845 whole entry): as the sequence (P28845 whole entry, the tested form may be a part) above
smiles,measurement,setting,value
"Cn1c(-c2ccc(C(N)=O)cc2F)nnc1C(C)(C)Oc1c(F)cc(Cl)cc1F [SPI-62, 4-(5-(2-(4-chloro-2,6-difluorophenoxy)propan-2-yl)-4-methyl-4H-1,2,4-triazol-3-yl)-3-fluorobenzamide]","adipose HSD-1 inhibition, 2nd v 14th dose intervals",[1]; SPI-62 6 mg daily,almost identical
same,time after a single dose at which adipose HSD-1 inhibition was detected,"[1]; SPI-62 6 mg daily, median of two subjects, FIG. 1",2 to 4 h
same,adipose HSD-1 inhibition during the 2nd dose interval,"[1]; SPI-62 6 mg daily, quantitation limited to ~90-95%",maximal measurable levels
same,adipose HSD-1 inhibition after multiple doses,"[1]; SPI-62 1, 2, 3, or 10 mg",maximum measurable
same,tachyphylaxis of human adipose HSD-1 inhibition with multiple dosing,"[1]; human, in vivo",does not show
same,adipose HSD-1 inhibition after lower single doses,[1]; lower single SPI-62 doses,no or limited
same,Ki,[2],12.6 nM
same,effective dose range,[3],below 10 mg daily
